From publication PMC12446476 (Nature Communications, 2025)

System: N. gonorrhoeae
Experiment: N. gonorrhoeae murine vaginal infection model, efficacy
Assay type: in vivo, mouse
Protocol: The N. gonorrhoeae female mouse vaginal model[45] was performed in accordance with the Guide for Care and Use of Laboratory Animals[75]. Animal rooms were maintained at a temperature range of 20–24 °C and humidity between 30% and 70%, with 12 h light/dark cycles. Ovariectomized BALB/c female mice (5–6 weeks, BioLASCO Taiwan Co., Ltd.) were treated with estradiol (0.23 mg/mouse) two days before infection and on the day of infection. Ovariectomized mice were used to avoid staging mice before treating them with estradiol. Beginning two days prior to infection and maintained until the end of the study, animals were treated twice daily with streptomycin (1.2 mg/mouse) and vancomycin (0.6 mg/mouse) each via intraperitoneal (IP) injection and received trimethoprim sulfate in the drinking water (0.4 mg/mL) to control vaginal microflora. Animals were anesthetised with pentobarbital (80 mg/kg), the vagina was rinsed with 50 mM HEPES (pH 7.4), and then inoculated with N. gonorrhoeae in pre-warmed PBS (0.02 mL/mouse containing ~1 × 10^5 CFU).
Control groups received either a single IP injection of ceftriaxone or 5% dextrose (vehicle) twice daily. Animals were sacrificed via CO2 asphyxiation at either 2 h (baseline), 26 and/or 50 h post-infection. Vaginal lavage was performed twice with 200 µL GC broth containing 0.05% saponin to recover bacteria. Bacterial burden in the lavage fluids was determined by performing 10-fold serial dilutions and plating on chocolate agar plates. Four strains were assessed using the model; ATCC 700825 is naturally streptomycin-resistant, whereas AR Bank0179-15, AR Bank0181-17 and WHO X-07 are derivatives of AR Bank0179, AR Bank0181 and WHO X, respectively, that were engineered for streptomycin resistance for use in the model.

Cc1c(CN(C)C(=O)/C=C/c2cnc3c(c2)N[C@H](C)[C@H](O)C(=O)N3)oc2ccccc12 [Debio 1453]
Mean Diff. 0h vs. treatment, log10 CFU (AR Bank0179-15, 20 µg/mL Debio 1453, 24h): -1.082
Mean Diff. 0h vs. treatment, log10 CFU (AR Bank0179-15, 20 µg/mL Debio 1453, 48h): -1.16
Mean Diff. 0h vs. treatment, log10 CFU (AR Bank0179-15, 40 µg/mL Debio 1453, 24h): -0.242
Mean Diff. 0h vs. treatment, log10 CFU (AR Bank0179-15, 40 µg/mL Debio 1453, 48h): 1.58
Mean Diff. 0h vs. treatment, log10 CFU (AR Bank0179-15, 60 µg/mL Debio 1453, 24h): 1.644
Mean Diff. 0h vs. treatment, log10 CFU (AR Bank0179-15, 60 µg/mL Debio 1453, 48h): 2.864
Mean Diff. 0h vs. treatment, log10 CFU (AR Bank0179-15, 80 µg/mL Debio 1453, 24h): 1.958
Mean Diff. 0h vs. treatment, log10 CFU (AR Bank0179-15, 80 µg/mL Debio 1453, 48h): 2.964
Mean Diff. 0h vs. treatment, log10 CFU (AR Bank0179-15, 24h): 3.186
Mean Diff. 0h vs. treatment, log10 CFU (AR Bank0179-15, 48h): 3.186
Mean Diff. 0h vs. treatment, log10 CFU (AR Bank0181-17, 40 µg/mL Debio 1453, 24h): -1.694
Mean Diff. 0h vs. treatment, log10 CFU (AR Bank0181-17, 40 µg/mL Debio 1453, 48h): -0.796
Mean Diff. 0h vs. treatment, log10 CFU (AR Bank0181-17, 60 µg/mL Debio 1453, 24h): -1.094
Mean Diff. 0h vs. treatment, log10 CFU (AR Bank0181-17, 60 µg/mL Debio 1453, 48h): -0.998
Mean Diff. 0h vs. treatment, log10 CFU (AR Bank0181-17, 80 µg/mL Debio 1453, 24h): -0.986
Mean Diff. 0h vs. treatment, log10 CFU (AR Bank0181-17, 80 µg/mL Debio 1453, 48h): -0.852
Mean Diff. 0h vs. treatment, log10 CFU (AR Bank0181-17, 320 µg/mL Debio 1453, 24h): 3.42
Mean Diff. 0h vs. treatment, log10 CFU (AR Bank0181-17, 320 µg/mL Debio 1453, 48h): 3.56
Mean Diff. 0h vs. treatment, log10 CFU (AR Bank0181-17, 24h): 0.842
Mean Diff. 0h vs. treatment, log10 CFU (AR Bank0181-17, 48h): 1.134
Mean Diff. 0h vs. treatment, log10 CFU (ATCC 700825, 20 µg/mL Debio 1453, 24h): -0.874
Mean Diff. 0h vs. treatment, log10 CFU (ATCC 700825, 20 µg/mL Debio 1453, 48h): -1.386
Mean Diff. 0h vs. treatment, log10 CFU (ATCC 700825, 40 µg/mL Debio 1453, 24h): -0.322
Mean Diff. 0h vs. treatment, log10 CFU (ATCC 700825, 40 µg/mL Debio 1453, 48h): -0.946
Mean Diff. 0h vs. treatment, log10 CFU (ATCC 700825, 60 µg/mL Debio 1453, 24h): 1.296
Mean Diff. 0h vs. treatment, log10 CFU (ATCC 700825, 60 µg/mL Debio 1453, 48h): 2.468
Mean Diff. 0h vs. treatment, log10 CFU (ATCC 700825, 80 µg/mL Debio 1453, 24h): 2.796
Mean Diff. 0h vs. treatment, log10 CFU (ATCC 700825, 80 µg/mL Debio 1453, 48h): 3.082
Mean Diff. 0h vs. treatment, log10 CFU (ATCC 700825, 24h): 2.942
Mean Diff. 0h vs. treatment, log10 CFU (ATCC 700825, 48h): 3.082
Mean Diff. 0h vs. treatment, log10 CFU (WHO X-07, 40 µg/mL Debio 1453, 24h): -1.944
Mean Diff. 0h vs. treatment, log10 CFU (WHO X-07, 40 µg/mL Debio 1453, 48h): -2.102
Mean Diff. 0h vs. treatment, log10 CFU (WHO X-07, 60 µg/mL Debio 1453, 24h): -1.81
Mean Diff. 0h vs. treatment, log10 CFU (WHO X-07, 60 µg/mL Debio 1453, 48h): -1.666
Mean Diff. 0h vs. treatment, log10 CFU (WHO X-07, 80 µg/mL Debio 1453, 24h): -1.492
Mean Diff. 0h vs. treatment, log10 CFU (WHO X-07, 80 µg/mL Debio 1453, 48h): -1.246
Mean Diff. 0h vs. treatment, log10 CFU (WHO X-07, 320 µg/mL Debio 1453, 24h): 3.01
Mean Diff. 0h vs. treatment, log10 CFU (WHO X-07, 320 µg/mL Debio 1453, 48h): 3.322
